These results are taken from the NIST ThermoML archive (doi:10.1021/je201354k).

± gives the expanded uncertainty stated by the source.

Series [1] in a line: Molar enthalpy of transition or fusion. The note with it: Crystal; DSC.
For series [2] the following is noted: Crystal; DTA.

Consider `N[C@@H](Cc1ccccc1)C(=O)O` [L-phenylalanine], for which the “Molar enthalpy of transition or fusion” value in series [1] was determined as 4.41 ± 0.136 kcal/mol. The Triple point temperature in series [2] worked out at 556.15 ± 0.5 K.
